Patent US11458141B2, “Aryl hydrocarbon receptor (AhR) agonists for the prevention and treatment of inflammatory disorders” (The Johns Hopkins University, priority 2017, dated 2022)
Entries after “also recorded” stand apart in the source; their conditions may differ.

Key:
AHR signaling pathway = test: Maternal I3C administration, Cypla1 mRNA in ileum of offspring with NEC; assay type: in vivo, mouse; details: mums 25 mg/kg oral gavage E7 to P7
Method: (§1) The pups whose mums received 25 mg/kg indole-3-carbinol (13C) by oral gavage starting from the embryonic age 7 (E7) of the fetus until the postnatal day 7 (P7) were included in maternal […]-rich group, while the pups whose mums received vehicle were included in maternal […]-free group. Necrotizing enterocolitis (NEC) was induced in 7-day-old mouse pups by gavage feeding and hypoxia exposure for 4 days. The ileum was harvested at the end of experiment and the mRNA expression of target genes was analyzed by qPCR. Referring now to FIG. 7, the mRNA expression of Cypla1, the down-stream gene of AHR signaling, was quantified in the ileum of experimental NEC models. Data are represented as mean±SEM; *p<0.05 between indicated groups; each dot represents an individual mouse.

mice with NEC [1] = test: Maternal I3C administration, Tnf alpha and Il6 mRNA in ileum of offspring with NEC; assay type: in vivo, mouse; details: mums 25 mg/kg oral gavage E7 to P7, NEC groups
Method: as §1, with “8,” for “7,”, “pro-inflammatory cytokine tumor necrosis factor alpha (Tnf alpha)” for “Cypla1, the down-stream gene of AHR signaling,”, “mouse. […] Referring now to FIG. 9, the mRNA expression of pro-inflammatory cytokine Interleukin-6 (Il6) was quantified in the ileum of experimental NEC models. Data are represented as mean±SEM; *p<0.05 between indicated groups; each dot represents an individual mouse.” for “mouse.”

mice with NEC [2] = test: Experimental NEC model in 7-day-old mice (formula gavage, hypoxia, NEC stool bacteria), NEC severity; assay type: in vivo, mouse; details: for NEC severity: I3C oral 50 mg/kg/day, 50 mg/kg/day
Text: The development of NEC requires TLR4 signaling in the intestinal epithelium. In seeking to understand the biological underpinnings of NEC, it has been discovered that activation within the intestinal epithelium of the receptor for gram-negative bacteria, namely toll-like receptor 4 (TLR4), is critical for the development of NEC. […] Further, mice that lack TLR4 in the intestinal epithelium (herein referred to as TLR4^ΔIEC mice) or globally (TLR4^−/−) were generated and then subjected to the well validated NEC model at 7 days of age. Mice were gavaged with formula, i.e., Similac Advance infant formula (Abbott Nutrition):Esbilac canince milk replacer (PetAb) in a 2:1 ratio at 50 μL/g every 3 hours, 10 mins hypoxia (5% O2 95% N2 in a Billups-Rothenberg chamber) twice daily for four days, and oral gavage of bacteria (1×10^5 cfu/mL) obtained from the stool of a patient with severe NEC. This experimental protocol induces patchy small intestinal necrosis, intestinal edema, and mucosal disruption very similar to human NEC in wild-type mice (FIG. 10), while mice lacking TLR4 in the intestinal epithelium (TLR4^ΔIEC mice) or globally (TLR4^−/−) were protected from NEC development. Mechanistically, TLR4 activation in the intestinal epithelium leads to an increase in apoptosis and a reduction in proliferation within the intestinal epithelium which leads to mucosal injury (FIG. 11). […]
Another aspect of the presently disclosed subject matter was to identify novel agonists of AHR which could be orally administered to prevent or treat experimental NEC, and which have greater potency and pharmacokinetic properties than the dietary-derived ligand I3C. To do so, an AHR-luciferase screen in intestinal epithelial cells (IEC-6 cells) was developed, then compound libraries were screened, and validation in vitro and in vivo using readouts of AHR activation by measuring the expression of Cyp1 was performed. […]

[3] = system: AHR activation and TLR4 signaling in enteroids; test: Mouse enteroids: Cypla1 induction and TLR4 signaling; assay type: cell-based; details: I3C 200 μM
Text: AHR activation by I3C or breast milk limits TLR4 signaling in the intestinal epithelium (FIG. 14). In seeking to investigate how AHR signaling attenuates NEC severity, whether AHR activation could limit the degree of TLR4 signaling in the gut was investigated. To do so, enteroids were derived from wild-type mice, which are intestinal cultures containing all cell lineages derived from intestinal crypts, as have been described.

mice with NEC [4] = test: I3C to the pregnant mother (50 mg/kg/day), AHR activation and NEC in the pup; assay type: in vivo, mouse
Text: The administration of the AHR ligand I3C to the pregnant mother prevents NEC in the newborn mouse (FIG. 16). […] Another aspect of the presently disclosed subject matter is to develop a diet rich in AHR ligands that could be administered to the mother, and protect against the development of NEC. […]

[5] = I3C 50 mg/kg/d to pregnant mice

In the case of OCc1c[nH]c2ccccc12 [I3C, indole-3-carbinol], the “mRNA expression of Cypla1 (AHR signaling) in offspring” value (AHR signaling pathway) is reported as “significantly activated the AHR signaling pathway”, the “Il6 mRNA expression in offspring” value (mice with NEC [1]) is reported as “significantly reduced the Il6 expression” and the “Tnf alpha mRNA expression in offspring” value (mice with NEC [1]) is reported as “significantly reduced the Tnf alpha expression”. For the same molecule, the NEC severity (mice with NEC [2]; AHR-/- mice) was “but not AHR^−/− mice; also recorded: does not protect”, the “expression of proinflammatory gene IL-1” value (mice with NEC [2]; mice afflicted with NEC) was “reduced the expression of proinflammatory gene IL-1” and the NEC severity (mice with NEC [2]; wild-type mice) was “reduces NEC severity; also recorded: limits NEC severity”. For the same molecule, the Cypla1 induction ([3]; enteroids from wild-type mice) was “significantly induced the downstream molecule Cypla1; also recorded: induces Cypla1”, the “TLR4 signaling (cytokine/TNF induction)” value ([3]; enteroids, conditioned media from NEC stool bacteria) was “reduced TLR4 signaling; also recorded: reduces TNF” and the “NEC severity in the pup” value (mice with NEC [4]; [5]) was “significantly reduced NEC severity; also recorded: prevents NEC in the newborn mouse pup”. The “cytokine (IL-6) induction in the pup” value (mice with NEC [4]; [5]) was “reduced cytokine induction; also recorded: decreased IL-6 expression”, the “enterocyte apoptosis in the pup” value (mice with NEC [4]; [5]) was “reduced enterocyte apoptosis” and the “mucosal injury / histology in the pup” value (mice with NEC [4]; [5]) was “reduced; also recorded: improved histology”. The “proliferation in the pup intestinal mucosa” value (mice with NEC [4]; [5]) was “improved proliferation” and the “Cypla1 expression in the intestine (AHR activation in utero)” value (mice with NEC [4]; I3C oral 50 mg/kg/day to the pregnant mother, 50 mg/kg/day) was “induced the downstream gene Cypla1 in the pup intestine; also recorded: leads to expression of Cypla1 in the intestinal epithelium of both the mother and the fetus”.
